Test results: US20240059691A1 (KALVISTA PHARMACEUTICALS LIMITED, priority 2020, published 2024)

What follows are compounds tested against Human Factor XIIa (Homo sapiens (Human), UniProt P00748) (assay: Determination of FXIIa inhibition (fluorogenic substrate H-DPro-Phe-Arg-AFC, IC50 assay)). Conditions: substrate H-DPro-Phe-Arg-AFC at Km, 25° C.; class scale A-G.
Format: biochemical
Protocol: Determination of FXIIa Inhibition
In vitro inhibition of Factor XIIa was determined using an IC50 assay based on standard literature methods (see e.g Baeriswyl et al., ACS Chem. Biol., 2015, 10 (8) 1861; Bouckaert et al., European Journal of Medicinal Chemistry 110 (2016) 181). Human Factor XIIa (Enzyme Research Laboratories) was incubated at 25° C. with the fluorogenic substrate H-DPro-Phe-Arg-AFC (Peptide Protein Science) and various concentrations of the test compound. Protease activity was measured by monitoring the accumulation of liberated fluorescence from the substrate over 5 min at 25° C. The linear rate of fluorescence increase per minute was expressed as percentage (%) activity. The Km for the cleavage of the substrate by FXIIa was determined by standard transformation of the Michaelis-Menten equation. The compound inhibitor assays were performed at substrate Km concentration. IC50 values were calculated as the concentration of inhibitor giving 50% inhibition (IC50) of the uninhibited enzyme activity (100%).

Chain of Human Factor XIIa (P00748 373-615): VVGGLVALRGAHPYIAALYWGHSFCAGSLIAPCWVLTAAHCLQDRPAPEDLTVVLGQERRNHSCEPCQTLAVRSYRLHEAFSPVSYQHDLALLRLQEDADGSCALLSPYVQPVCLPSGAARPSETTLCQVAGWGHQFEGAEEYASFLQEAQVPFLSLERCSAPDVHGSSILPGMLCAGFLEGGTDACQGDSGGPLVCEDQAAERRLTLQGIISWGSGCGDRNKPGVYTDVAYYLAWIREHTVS

SMILES	IC50
Nc1nccc2cc(NCc3ccnc(OCC4CCn5cc(C(F)(F)F)nc5C4)c3)ccc12 (centres unmarked) [Example 4266, 6-N-[(2-{[2-(trifluoromethyl)-5H,6H,7H,8H-imidazo[1,2-a]pyridin-7-yl]methoxy}pyridin-4-yl)methyl]isoquinoline-1,6-diamine]	1000 to 3000 nM
Nc1nccc2cc(NCc3cccc(CN4CCCC4)c3)ccc12 [Example 4287, 6-N-{[3-(pyrrolidin-1-ylmethyl)phenyl]methyl}isoquinoline-1,6-diamine]	10000 to 40000 nM
CN1CCN(CCc2cccc(CNc3ccc4c(N)nccc4c3)c2)CC1 [Example 4288, 6-N-({3-[2-(4-methylpiperazin-1-yl)ethyl]phenyl}methyl)isoquinoline-1,6-diamine]	3000 to 10000 nM
CC(C)N1CCC(OCc2cc(CNc3ccc4c(N)ncc(Cl)c4c3)ccn2)CC1 [Example 4296, 4-chloro-6-N-[(2-{[(1-isopropylpiperidin-4-yl)oxy]methyl}pyridin-4-yl)methyl]isoquinoline-1,6-diamine]	1000 to 3000 nM
Nc1nccc2cc(NCc3ccnc(OCC4CCn5ccnc5C4)c3)ccc12 (centres unmarked) [Example 4408, N6-((2-((5,6,7,8-tetrahydroimidazo[1,2-a]pyridin-7-yl)methoxy)pyridin-4-yl)methyl)isoquinoline-1,6-diamine]	100 to 300 nM
CN1CCC(CCc2cc(CNc3ccc4c(N)nccc4c3)ccn2)CC1 [Example 4409, 6-N-({2-[2-(1-methylpiperidin-4-yl)ethyl]pyridin-4-yl}methyl)isoquinoline-1,6-diamine]	300 to 1000 nM
CN1CCC(CCc2cccc(CNc3ccc4c(N)nccc4c3)c2)CC1 [Example 4410, 6-N-({3-[2-(1-methylpiperidin-4-yl)ethyl]phenyl}methyl)isoquinoline-1,6-diamine]	300 to 1000 nM
Nc1nccc2cc(NCc3ccnc(OCC4CCn5cnnc5C4)c3)ccc12 (centres unmarked) [Example 4411, 6-N-[(2-{5H,6H,7H,8H-[1,2,4]triazolo[4,3-a]pyridin-7-ylmethoxy}pyridin-4-yl)methyl]isoquinoline-1,6-diamine]	300 to 1000 nM
Cc1nnc2n1CCC(COc1cc(CNc3ccc4c(N)nccc4c3)ccn1)C2 (centres unmarked) [Example 4413, 6-N-{[2-({3-methyl-5H,6H,7H,8H-[1,2,4]triazolo[4,3-a]pyridin-7-yl}methoxy)pyridin-4-yl]methyl}isoquinoline-1,6-diamine]	1000 to 3000 nM
CC(Oc1cc(CNc2ccc3c(N)nccc3c2)ccn1)C1CCN(C)CC1 (centres unmarked) [Example 4414, 6-N-({2-[1-(1-methylpiperidin-4-yl)ethoxy]pyridin-4-yl}methyl)isoquinoline-1,6-diamine]	100 to 300 nM
CN1CCC(F)(COc2cc(CNc3ccc4c(N)nccc4c3)ccn2)CC1 [Example 4415, 6-N-({2-[(4-fluoro-1-methylpiperidin-4-yl)methoxy]pyridin-4-yl}methyl)isoquinoline-1,6-diamine]	300 to 1000 nM
CN1CCC(COc2cc(CNc3ccc4c(N)nccc4c3)ccn2)CC1=O (centres unmarked) [Example 4416, 4-{[(4-{[(1-aminoisoquinolin-6-yl)amino]methyl}pyridin-2-yl)oxy]methyl}-1-methylpiperidin-2-one]	300 to 1000 nM
CN1CCC(COc2cc(CNc3cccc4c(N)nccc34)ccn2)CC1=O (centres unmarked) [Example 4417, 4-{[(4-{[(1-aminoisoquinolin-5-yl)amino]methyl}pyridin-2-yl)oxy]methyl}-1-methylpiperidin-2-one]	300 to 1000 nM
CN1C[C@@H]2C(COc3cc(CNc4cccc5c(N)nccc45)ccn3)[C@@H]2C1 (stereo partly drawn) [Example 4418, 5-N-[(2-{[(1R,5S)-3-methyl-3-azabicyclo[3.1.0]hexan-6-yl]methoxy}pyridin-4-yl)methyl]isoquinoline-1,5-diamine]	300 to 1000 nM
CN1CCC(COc2cc(CN(C)c3cccc4c(N)nccc34)ccn2)CC1 [Example 4419, N5-methyl-N5-((2-((1-methylpiperidin-4-yl)methoxy)pyridin-4-yl)methyl)isoquinoline-1,5-diamine]	3000 to 10000 nM
Cn1ccnc1CCCOc1cc(CNc2ccc3c(N)nccc3c2)ccn1 [Example 4420, 6-N-({2-[3-(1-methylimidazol-2-yl)propoxy]pyridin-4-yl}methyl)isoquinoline-1,6-diamine]	1000 to 3000 nM
Cn1ccnc1CCCOc1cc(CNc2cccc3c(N)nccc23)ccn1 [Example 4421, 5-N-({2-[3-(1-methylimidazol-2-yl)propoxy]pyridin-4-yl}methyl)isoquinoline-1,5-diamine]	300 to 1000 nM
Cn1ccnc1COc1cc(CNc2ccc3c(N)nccc3c2)ccn1 [Example 4422, 6-N-({2-[(1-methylimidazol-2-yl)methoxy]pyridin-4-yl}methyl)isoquinoline-1,6-diamine]	3000 to 10000 nM
Cn1ccnc1COc1cc(CNc2cccc3c(N)nccc23)ccn1 [Example 4423, N5-((2-((1-methyl-1H-imidazol-2-yl)methoxy)pyridin-4-yl)methyl)isoquinoline-1,5-diamine]	3000 to 10000 nM
CN1CCC(C)(COc2cc(CNc3cccc4c(N)nccc34)ccn2)CC1 [Example 4424, N5-((2-((1,4-dimethylpiperidin-4-yl)methoxy)pyridin-4-yl)methyl)isoquinoline-1,5-diamine]	100 to 300 nM
CN1CCC(C)(COc2cc(CNc3ccc4c(N)nccc4c3)ccn2)CC1 [Example 4425, 6-N-({2-[(1,4-dimethylpiperidin-4-yl)methoxy]pyridin-4-yl}methyl)isoquinoline-1,6-diamine]	300 to 1000 nM
Nc1nccc2cc(NCc3ccnc(N4CCn5c(nnc5C(F)(F)F)C4)c3)ccc12 [Example 4471, N6-((2-(3-(trifluoromethyl)-5,6-dihydro-[1,2,4]triazolo[4,3-a]pyrazin-7(8H)-yl)pyridin-4-yl)methyl)isoquinoline-1,6-diamine]	10000 to 40000 nM
Nc1nccc2c(NCc3ccnc(N4CCn5c(nnc5C(F)(F)F)C4)c3)cccc12 [Example 4472, N5-((2-(3-(trifluoromethyl)-5,6-dihydro-[1,2,4]triazolo[4,3-a]pyrazin-7(8H)-yl)pyridin-4-yl)methyl)isoquinoline-1,5-diamine]	1000 to 3000 nM
Nc1nccc2c(NCc3cc(N4CCn5c(nnc5C(F)(F)F)C4)cs3)cccc12 [Example 8459, N5-((4-(3-(Trifluoromethyl)-5,6-dihydro-[1,2,4]triazolo[4,3-a]pyrazin-7(8H)-yl)thiophen-2-yl)methyl)isoquinoline-1,5-diamine]	100 to 300 nM
Cc1cc(N2CCn3c(nnc3C(F)(F)F)C2C)cnc1CNc1cccc2c(N)nccc12 (centres unmarked) [Example 9007, N5-((3-methyl-5-(8-methyl-3-(trifluoromethyl)-5,6-dihydro-[1,2,4]triazolo[4,3-a]pyrazin-7(8H)-yl)pyridin-2-yl)methyl)isoquinoline-1,5-diamine]	10 to 100 nM
CC1c2nnc(C(F)(F)F)n2CCN1c1cnc(CNc2cccc3c(N)nccc23)c(F)c1 (centres unmarked) [Example 9008, N5-((3-fluoro-5-(8-methyl-3-(trifluoromethyl)-5,6-dihydro-[1,2,4]triazolo[4,3-a]pyrazin-7(8H)-yl)pyridin-2-yl)methyl)isoquinoline-1,5-diamine]	10 to 100 nM
